Earlier results as cited in patent EP4108230A1, “NEW DRY POWDER COMPOSITION OF TIOTROPIUM FOR INHALATION” (Laboratoires SMB, priority 2021, dated 2022).

For `C[N+]1(C)[C@@H]2C[C@@H](OC(=O)C(O)(c3cccs3)c3cccs3)C[C@H]1[C@@H]1O[C@@H]12` [Tiotropium bromide, (1α, 2β, 4 β, 5α, 7β)-7-[(Hydroxydi-2-thienylacetyl)oxy]-9,9-dimethyl-3-oxa-9-azoniatricyclo[3.3.1.02,4] nonane bromide monohydrate], the solubility in methanol (methanol) is listed as “soluble” and the solubility in water (water) is listed as “sparingly soluble”.
